According to US20090234018A1, “Non-Standard Amino Acid Conjugates of Amphetamine and Processes for Making and Using the Same” (priority 2006, published 2009):
Like-named read-outs stand apart in the source and are kept apart here.

Experiments:
[1] = Oral PK study of Lys-Amp, hArg-Amp, Orn-Amp and Cit-Amp (Example 9); conditions: rat; for % Tmax: relative to Lys-Amp
[2] = Intranasal PK study of d-amphetamine, hArg-Amp, Orn-Amp (Example 10); conditions: rat; for % Tmax: relative to d-amp
[3] = PK of d-amphetamine after parenteral (intranasal, intravenous) administration of hArg-Amp (Example 1)
[4] = rat, oral; relative to hArg-Amp
[5] = Average of 4 oral PK studies of Lys-Amp and hArg-Amp (Example 7, Table 3); conditions: average of 4 oral studies, n=20; relative to Lys-Amp
[6] = Intravenous PK study of d-amphetamine, hArg-Amp, Orn-Amp (Example 11); conditions: rat, relative to d-amp
[7] = Oral gavage PK study of Lys-Amp and hArg-Amp, plasma d-amphetamine by ELISA (Example 7); conditions: rat, relative to Lys-Amp
[8] = plasma d-amphetamine, given in minutes

Compound	Tmax compared to Lys-Amp [1]	Tmax [1, 8]	% Tmax [1]	Tmax [2, 8]	% Tmax [2]	release of amphetamine [3]	% Tmax [4]	% Tmax [5]	% Tmax [6]	% Tmax [7]	Cmax ([1]; plasma d-amphetamine)
1-citrulline-d-amphetamine hydrochloride [Cit-Amp]	significantly shifted the Tmax	15 m	25%	–	–	–	–	–	–	–	–
C[C@H](N)Cc1ccccc1 [d-amp, d-amphetamine]	–	–	–	15 m	100%	–	–	–	–	–	–
C[C@@H](Cc1ccccc1)NC(=O)[C@@H](N)CCCCN=C(N)N.Cl.Cl [hArg-Amp, l-homoarginine-d-amphetamine dihydrochloride]	–	–	200%	–	1600%	< 50%	100%	400%	100%	133%	–
l-lysine-d-amphetamine [Lys-Amp, reference compound]	–	–	100%	–	–	–	–	100%	–	100%	59 ng/mL
